In general, Ki refers to the dissociation constant of the complex between target and ligand, obtained from inhibition or displacement.

In the assay the target is T1, human PTHR1 receptor (Homo sapiens, UniProt Q03431).
T1 construct: purchased Eurofins HTS030M
T1 sequence (Q03431 27-593): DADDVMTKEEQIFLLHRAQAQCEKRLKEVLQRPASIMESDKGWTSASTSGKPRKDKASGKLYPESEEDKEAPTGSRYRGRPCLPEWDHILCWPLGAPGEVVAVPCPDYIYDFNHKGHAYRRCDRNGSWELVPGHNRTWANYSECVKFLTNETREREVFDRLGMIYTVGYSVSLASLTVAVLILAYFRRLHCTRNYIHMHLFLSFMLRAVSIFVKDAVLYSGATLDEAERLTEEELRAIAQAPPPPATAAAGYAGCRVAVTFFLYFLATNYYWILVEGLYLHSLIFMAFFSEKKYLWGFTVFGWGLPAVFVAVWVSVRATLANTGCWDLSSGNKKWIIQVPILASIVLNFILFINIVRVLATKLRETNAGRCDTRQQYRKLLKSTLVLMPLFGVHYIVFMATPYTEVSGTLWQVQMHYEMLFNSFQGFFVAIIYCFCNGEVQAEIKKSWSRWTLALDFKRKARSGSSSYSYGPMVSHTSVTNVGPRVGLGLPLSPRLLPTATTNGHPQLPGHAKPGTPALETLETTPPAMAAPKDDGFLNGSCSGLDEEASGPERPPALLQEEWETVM
The experiment in a line: Competitive antagonist binding assay for hPTH-R1 (radioactive competition binding, SPA beads). The settings on record: human PTHR1 membranes, [125I]-[Nle8,18,Tyr34]-PTH(1-34) 0.2 nM, 90 minutes at room temperature; read-out: hPTHR1 Ki. On the procedure: Competitive Antagonist Binding Assay Protocol for hPTH-R1 Antagonists:
The inhibition of binding to the human PTHR1 receptor was measured in a radioactive competition binding assay using the radiolabeled [^125I]-[NLE^8,18, TYR^34]-parathyroid hormone (1-34) ligand (PerkinElmer Cat# NEX244, custom synthesis) as the probe ligand for the receptor. Briefly, membranes from cells expressing the human PTHR1 (Eurofins Cat# HTS030M) were incubated with SPA beads (PerkinElmer Cat# RPNQ0001) in binding assay buffer [50 mM HEPES (Biopioneer Cat# C0113), 5 mM MgCl2 (Sigma Cat# M8266), 10 mM CaCl2 (Fisher Scientific Cat# BP510), 0.1% BSA (Fisher Scientific Cat# BP1600), 0.01% TritonX-100 (Bio-Rad Cat#161-0407), and protease inhibitors (Pierce Cat# A32963); pH 7.4]. Membranes bound to SPA bead were treated with various dilutions of compounds (final concentrations typically 0-10,000 nM), and 0.2 nM radiolabeled ligand in 96-well isoplates (PerkinElmer Cat#6005040) for 90 minutes at room temperature. The radioactive signal was detected using a MicroBetaTriLux 1450 LSC (PerkinElmer). All data manipulations to determine the Ki values were performed using GraphPad v8 (GraphPad, San Diego Calif.).
`CCN1C(=O)N(c2c(F)cc(NCCN)cc2F)c2cc(Cl)ccc2-c2cc(Cl)cnc21` [1-9, 10-{4-[(2-aminoethyl)amino]-2,6-difluorophenyl}-4,13-dichloro-8-ethyl-6,8,10-triazatricyclo[9.4.0.0^2,7]pentadeca-1(11),2(7),3,5,12,14-hexaen-9-one]: the Ki was below 100 nM. Consider `CCN1C(=O)N(c2c(F)cc(NCCNCCCC(=O)O)cc2F)c2cc(Cl)ccc2-c2cc(Cl)cnc21` [1-10, 4-({2-[(4-{4,13-dichloro-8-ethyl-9-oxo-6,8,10-triazatricyclo[9.4.0.0^2,7]pentadeca-1(11),2(7),3,5,12,14-hexaen-10-yl}-3,5-difluorophenyl)amino]ethyl}amino)butanoic Acid], for which the Ki was below 100 nM. In the case of `CCN1C(=O)N(c2c(F)cc(NCCNCCO)cc2F)c2cc(Cl)ccc2-c2cc(Cl)cnc21` [1-11, 4,13-dichloro-10-[2,6-difluoro-4-({2-[(2-hydroxyethyl)amino]ethyl}amino)phenyl]-8-ethyl-6,8,10-triazatricyclo[9.4.0.0^2,7]pentadeca-1(11),2(7),3,5,12,14-hexaen-9-one], the inhibitory constant (Ki) is below 100 nM. Turning to `CCN1C(=O)N(c2c(F)cc(NCCNC3CCOCC3)cc2F)c2cc(Cl)ccc2-c2cc(Cl)cnc21` [1-12, 4,13-dichloro-10-[2,6-difluoro-4-({2-[(oxan-4-yl)amino]ethyl}amino)phenyl]-8-ethyl-6,8,10-triazatricyclo[9.4.0.0^2,7]pentadeca-1(11),2(7),3,5,12,14-hexaen-9-one], the Ki is below 100 nM. For the compound `CCN1C(=O)N(c2c(F)cc(NCCNC3CCOC3)cc2F)c2cc(Cl)ccc2-c2cc(Cl)cnc21` (stereo not shown) [1-13, 4,13-dichloro-10-[2,6-difluoro-4-({2-[(oxolan-3-yl)amino]ethyl}amino)phenyl]-8-ethyl-6,8,10-triazatricyclo[9.4.0.0^2,7]pentadeca-1(11),2(7),3,5,12,14-hexaen-9-one], the Ki is below 100 nM.

`CCN1C(=O)N(c2c(F)cc(NCCNC)cc2F)c2cc(Cl)ccc2-c2cc(F)cnc21` [1-14, 13-chloro-10-(2,6-difluoro-4-{[2-(methylamino)ethyl]amino}phenyl)-8-ethyl-4-fluoro-6,8,10-triazatricyclo[9.4.0.0^2,7]pentadeca-1(11),2(7),3,5,12,14-hexaen-9-one]: the Ki is below 100 nM. In the case of `CCN1C(=O)N(c2c(F)cc(NCCN)cc2F)c2cc(Cl)ccc2-c2cc(F)cnc21` [1-15, 10-{4-[(2-aminoethyl)amino]-2,6-difluorophenyl}-13-chloro-8-ethyl-4-fluoro-6,8,10-triazatricyclo[9.4.0.0^2,7]pentadeca-1(11),2(7),3,5,12,14-hexaen-9-one], the Ki is below 100 nM. Consider `CCN1C(=O)N(c2c(F)cc(NCCNCCCC(=O)O)cc2F)c2cc(Cl)ccc2-c2cc(F)cnc21` [1-16, 4-({2-[(4-{13-chloro-8-ethyl-4-fluoro-9-oxo-6,8,10-triazatricyclo[9.4.0.0^2,7]pentadeca-1(11),2(7),3,5,12,14-hexaen-10-yl}-3,5-difluorophenyl)amino]ethyl}amino)butanoic acid], for which the Ki is below 100 nM. For `CCN1C(=O)N(c2c(F)cc(NCCNCCO)cc2F)c2cc(Cl)ccc2-c2cc(F)cnc21` [1-17, 13-chloro-10-[2,6-difluoro-4-({2-[(2-hydroxyethyl)amino]ethyl}amino)phenyl]-8-ethyl-4-fluoro-6,8,10-triazatricyclo[9.4.0.0^2,7]pentadeca-1(11),2(7),3,5,12,14-hexaen-9-one], the Ki is below 100 nM. In the case of `CCN1C(=O)N(c2c(F)cc(NCCNC)cc2F)c2cc(Cl)ccc2-c2cc(C)cnc21` [1-18, 13-chloro-10-(2,6-difluoro-4-{[2-(methylamino)ethyl]amino}phenyl)-8-ethyl-4-methyl-6,8,10-triazatricyclo[9.4.0.0^2,7]pentadeca-1(11),2(7),3,5,12,14-hexaen-9-one], the Ki is below 100 nM. On to `CCN1C(=O)N(c2c(F)cc(NCCNC3CCOCC3)cc2F)c2cc(Cl)ccc2-c2cc(F)cnc21` [1-19, 13-chloro-10-[2,6-difluoro-4-({2-[(oxan-4-yl)amino]ethyl}amino)phenyl]-8-ethyl-4-fluoro-6,8,10-triazatricyclo[9.4.0.0^2,7]pentadeca-1(11),2(7),3,5,12,14-hexaen-9-one], for which the Ki is below 100 nM.

In the case of `CCN1C(=O)N(c2c(F)cc(NCCNC3CCOC3)cc2F)c2cc(Cl)ccc2-c2cc(F)cnc21` (stereo not shown) [1-20, 13-chloro-10-[2,6-difluoro-4-({2-[(oxolan-3-yl)amino]ethyl}amino)phenyl]-8-ethyl-4-fluoro-6,8,10-triazatricyclo[9.4.0.0^2,7]pentadeca-1(11),2(7),3,5,12,14-hexaen-9-one], the Ki is below 100 nM. In the case of `CCN1C(=O)N(c2c(F)cc(NCCNC)cc2F)c2cccc(C)c2-c2cc(Cl)cnc21` [1-21, 4-chloro-10-(2,6-difluoro-4-{[2-(methylamino)ethyl]amino}phenyl)-8-ethyl-15-methyl-6,8,10-triazatricyclo[9.4.0.0^2,7]pentadeca-1(11),2(7),3,5,12,14-hexaen-9-one], the Ki is below 100 nM. `CCN1C(=O)N(c2c(F)cc(NCCN)cc2F)c2cc(Cl)ccc2-c2cc(C)cnc21` [1-22, 10-{4-[(2-aminoethyl)amino]-2,6-difluorophenyl}-13-chloro-8-ethyl-4-methyl-6,8,10-triazatricyclo[9.4.0.0^2,7]pentadeca-1(11),2(7),3,5,12,14-hexaen-9-one]: the Ki was below 100 nM. With `CCN1C(=O)N(c2c(F)cc(NCCNC)cc2F)c2cc(Cl)cc(C)c2-c2cccnc21` [1-23, 13-chloro-10-(2,6-difluoro-4-{[2-(methylamino)ethyl]amino}phenyl)-8-ethyl-15-methyl-6,8,10-triazatricyclo[9.4.0.0^2,7]pentadeca-1(11),2(7),3,5,12,14-hexaen-9-one], the Ki was below 100 nM.

Consider `CCN1C(=O)N(c2c(F)cc(NCCNC)cc2F)c2cc(Cl)ccc2-c2cc(C3CC3)cnc21` [1-24, 13-chloro-4-cyclopropyl-10-(2,6-difluoro-4-{[2-(methylamino)ethyl]amino}phenyl)-8-ethyl-6,8,10-triazatricyclo[9.4.0.0^2,7]pentadeca-1(11),2(7),3,5,12,14-hexaen-9-one], for which the Ki is below 100 nM. Next, `CCN1C(=O)N(c2c(F)cc(NCCNCCCC(=O)O)cc2F)c2cc(Cl)ccc2-c2cc(C)cnc21` [1-25, 4-({2-[(4-{13-chloro-8-ethyl-4-methyl-9-oxo-6,8,10-triazatricyclo[9.4.0.0^2,7]pentadeca-1(11),2(7),3,5,12,14-hexaen-10-yl}-3,5-difluorophenyl)amino]ethyl}amino)butanoic acid]: below 100 nM; `CCN1C(=O)N(c2c(F)cc(NCCNC3CCOCC3)cc2F)c2cc(Cl)ccc2-c2cc(C)cnc21` [1-27, 13-chloro-10-[2,6-difluoro-4-({2-[(oxan-4-yl)amino]ethyl}amino)phenyl]-8-ethyl-4-methyl-6,8,10-triazatricyclo[9.4.0.0^2,7]pentadeca-1(11),2(7),3,5,12,14-hexaen-9-one]: below 100 nM; `CCN1C(=O)N(c2c(F)cc(NCCNC3CCOC3)cc2F)c2cc(Cl)ccc2-c2cc(C)cnc21` (stereo not shown) [1-28, 13-chloro-10-[2,6-difluoro-4-({2-[(oxolan-3-yl)amino]ethyl}amino)phenyl]-8-ethyl-4-methyl-6,8,10-triazatricyclo[9.4.0.0^2,7]pentadeca-1(11),2(7),3,5,12,14-hexaen-9-one]: below 100 nM.

The record behind these values is patent US20230159532A1, “PARATHYROID HORMONE (PTH) RECEPTOR ANTAGONISTS AND USES THEREOF” (Crinetics Pharmaceuticals, Inc., priority 2021, published 2023).
